Read-outs that look alike come from different tables or passages of the source. Residues, ends and D or L forms follow the SMILES beside them.
What was measured:
[1] = system: sNF96.2 (MPNST cell line); format: cell-based, human; conditions: MTT, 96 hours; for anti-proliferative properties on MPNST (words): 2 to 100 μM
Procedure: The inventors have further tested 4 different peptides in the Peripheral Nerve Sheath Tumors (MPNST) cell lines sNF96.2, which was deposited to the ATCC under the reference ATCC® CRL-2884™.
Cells were cultured at DayO in a complete medium (DMEM with 10% of fetal bovine serum). Then they were deprived at Day2 (24 hours in a medium comprising DMEM with 0.1% fetal bovine serum followed by 24 hours in DMEM alone).
At Day 4, the cells were incubated with a dose escalation regimen of pepsignal peptides from 2 to 100 μM.
The proliferation tests were carried out 96 hours later.
Proliferation was analysed by a MTT assay. The MTT assay is a colorimetric assay for assessing cell viability. The viability is measured by the metabolic activity if the cells, which is determined by the activity of a mitochondrial succinate dehydrogenate. Typically, the cell media goes from yellow to blue and the intensity of the coloration is proportional to the number of viable cells. Coloration is determined by […] at 570 nm.
The inventors performed three independent experiments, each point being performed in duplicate for each experiment.

[2] = system: human coronary arterial endothelial cells (HCAEC); assay: Serum-induced proliferation of HCAEC, BrdU incorporation; format: cell-based; conditions: 10% serum, peptide 3-12 μM, U0126 10 μM, Paclitaxel 10 nM, VIVIT 100 μM
Procedure: Using the same protocol than in FIG. 3, cells were grown in the presence of 10% serum after withdrawal. The peptide TAT-DEF-c-Fos was applied at a single dose one day after withdrawal. Proliferation was tested using a BrdU assay; n=3; One-way ANOVA; Dunett post hoc test; * p<0.05; when compared to the group treated with 10% serum
Primary human coronary arterial endothelial cells (HCAEC) (Promocell C12222) were grown in Endothelial Cell Growth Medium MV2 (Promocell).
(§1) 10 000 cells per well were grown in the presence of complete medium. After one cycle of cell division (around 32 hours for HCAEC and vSMC, 24 hours for NIH3T3), the cells were starved for one other cycle (0.1% serum or nutriment supplement for HCAEC). […] Proliferation was analyzed after BrdU incorporation, which allows the visualization of cells under division. For HCAEC and vSMC, BrdU was added with inhibitor. For NIH3T3, it was added only during the last three hours. Cells were fixed in 4% paraformaldehyde.
(§2) Only the nuclei with an intact nucleus were taken into account. Image-Pro Plus software (Media Cybernetics) was used in order to quantify BrdU positive cells. The percentage of positive cells was reported to the total number of Hoechst-positive cells.

[3] = system: vascular smooth muscle cells (vSMC); assay: Serum-induced proliferation of vSMC, BrdU incorporation; format: cell-based, human; conditions: 3, 6 and 12 μM, 10% serum
Procedure: On day one, 10 000 cells per well were grown in the presence of 10% serum. […] On the bases of our previous results in neuronal cells (see Lavaur et al., 2007) three different doses of pepsignal were tested: from 3 to 12 μM.
Using the same protocol as in FIG. 3, cells were grown in the presence of 10% FBS (serum) after withdrawal. The peptide TAT-DEF-c-Fos was applied once (6 or 12 μM) on day one (first day after withdrawal) and proliferation was tested using a BrdU assay 24, 48 or 72 hours later. When indicated, multiple applications of the peptide were done (“m”) every 24 hours. Note that the TAT-DEF-c-Fos12 μM is not reported herein; n=3; Two-way ANOVA; Bonferroni post hoc test; *** p<0.001 when compared to the group treated with 10% serum.
Primary vascular smooth muscle cells (vSMC) (ATCC CRL-1999) were grown in DMEM F12K medium supplemented 0.05 mg/ml ascorbic acid; 0.01 mg/ml insulin; 0.01 mg/ml transferrin; 10 ng/ml sodium selenite; 10% (v/v) heat-inactivated FBS (Fetal Bovine Serum), 100 U/ml penicillin, and 100 μg/ml streptomycin, 10 mM HEPES.
10 000 cells per well were grown in the presence of complete medium. […] Proliferation was analyzed after BrdU incorporation, which allows the visualization of cells under division. […]
Only the nuclei with an intact nucleus were taken into account. Image-Pro Plus software (Media Cybernetics) was used in order to quantify BrdU positive cells. […]

NIH3T3 cells = assay: Serum-induced proliferation of NIH3T3 fibroblasts, BrdU incorporation; format: cell-based, mouse; conditions: 10% serum; BrdU 3 h; peptide 1 to 12 μM, U0126 10 μM
Procedure: On day one, 10 000 cells per well were grown in the presence of 10% serum.
NIH 3T3 mouse embryonic fibroblast cells were grown in DMEM supplemented with 10% (v/v) heat-inactivated FBS, 100 U/ml penicillin, and 100 μg/ml streptomycin.
as §1, §2

vSMC = assay: Wound healing assay (invasiveness) in vSMC; format: cell-based, human; conditions: 24 to 72 hours, U0126 10 μM, Paclitaxel 10 nM, 10% serum
Procedure: The peptide was applied once, at the same time as 10% serum. The invasiveness was calculated as the percentage of cells over the size of the lesion, 24, 48 and 72 hours post-lesion.
Cells were cultured in 24-well plates as a confluent monolayer (30000 cells plated per well). […] Cells were fixed in 4% paraformaldehyde then stained with cresyl violet dye (1% in methanol). Pictures were taken to visualize the marked wound location. The wound healing effect was measured using the NIH ImageJ program and expressed as percentage of recovery of the lesion.
Invasive properties were studied using the wound healing protocol.
The percentage of lesion recovery was measured after cresyl violet staining of vSMC cells (FIG. 8).

[4] = system: malignant peripheral nerve sheat tumors (MPNST) from NF1 patients; assay: Proliferation of MPNST cell lines from NF1 patients; format: cell-based; conditions: Homo sapiens, read-out: IC50, inhibition of proliferation of MPNST, 15% serum, control
Procedure: Human cell lines from malignant peripheral nerve sheat tumors (MPNST) were treated with either TAT-DEF-c-Fos at increasing doses, or as a control, with Rapamycin, an inhibitor of the mTOR pathway that is classically used as an inhibitor of proliferation on this cell line. The TAT-DEF-c-Fos peptide inhibited proliferation of MPNST at very low doses when compared to Rapamycin (IC50 for TAT-DEF-c-Fos around 10 μM instead of 10 mM for Rapamycin).
Malignant Peripheral Nerve Sheath Tumors (MPNST: from NF1 patients) were obtained from Michel Videaud's laboratory. 2000 cells were grown in the presence of 15% serum after withdrawal.
The inventors tested the efficacy of TAT-DEF-c-Fos on malignant NF1 cell proliferation (FIG. 9). For this purpose, the inventors used Human cell lines from malignant peripheral nerve sheat tumors (MPNST) from NF1 patients.
The MPNST cell lines were derived from a recurrent mass associated with peripheral nerve sheat and diagnosed as MPNST (Malignant Peripheral Nerve Sheath Tumor) in patients meeting NF1 diagnostic criteria.

Molecule	anti-proliferative properties on MPNST (words) [1]	inhibition of HCAEC cell proliferation [2]	inhibition of NIH3T3 fibroblast proliferation (NIH3T3 cells)	effect on vSMC invasiveness (wound healing) (vSMC)	also measured
TAT-DEF-JunB: SEQ ID NO: 37 GRKKRRQRRRPPTTPTPPGQYFYPRGGGSGGGAG (pepsignal)	lower efficacy than the TAT-DEF-c-Fos peptide				
CC[C@H](C)[C@H](NC(=O)[C@H](Cc1c[nH]cn1)NC(=O)[C@@H](NC(=O)[C@H](CCC(N)=O)NC(=O)[C@H](C)NC(=O)[C@H](CO)NC(=O)CNC(=O)[C@H](CO)NC(=O)[C@H](CO)NC(=O)[C@@H]1CCCN1C(=O)[C@H](Cc1ccccc1)NC(=O)[C@H](CCC(N)=O)NC(=O)[C@H](Cc1ccccc1)NC(=O)[C@H](CO)NC(=O)[C@H](CC(C)C)NC(=O)[C@H](CCCCN)NC(=O)[C@H](C)NC(=O)[C@@H]1CCCN1C(=O)[C@H](CO)NC(=O)[C@@H]1CCCN1C(=O)[C@@H]1CCCN1C(=O)[C@H](CCCNC(=N)N)NC(=O)[C@H](CCCNC(=N)N)NC(=O)[C@H](CCCNC(=N)N)NC(=O)[C@H](CCC(N)=O)NC(=O)[C@H](CCCNC(=N)N)NC(=O)[C@H](CCCNC(=N)N)NC(=O)[C@H](CCCCN)NC(=O)[C@H](CCCCN)NC(=O)[C@H](CCCNC(=N)N)NC(=O)CN)C(C)C)C(=O)O [TAT-DEF-Elk-1] (H-GRKKRRQRRRPPSPAKLSFQFPSSGSAQVHI-OH; N-terminus and C-terminus assumed)	slight inhibitory effect	no effect	no effect		anti-proliferative properties on vSMC (serum-induced proliferation) [3]: not and no effect; anti-proliferative properties on MPNST (words) ([1]; listed as TAT-DEF-Elk1): low anti-proliferative properties; inhibition of proliferation of sNF96.2, maximum reached ([1]; even at higher doses (up to 100 μM)): < 50%
CC(=O)O[C@H]1C(=O)[C@@]2(C)[C@H]([C@H](OC(=O)c3ccccc3)[C@]3(O)C[C@H](OC(=O)[C@H](O)[C@@H](NC(=O)c4ccccc4)c4ccccc4)C(C)=C1C3(C)C)[C@]1(OC(C)=O)CO[C@@H]1C[C@@H]2O [Paclitaxel]		efficient		significant but transient effect	
N#CC(=C(/N)Sc1ccccc1N)/C(C#N)=C(\N)Sc1ccccc1N [Peptide U0126, U0126]		efficient	failed to inhibit proliferation	lack of effect	effect on vSMC invasiveness (wound healing) (vSMC; listed as classical MEK inhibitor): failed to block invasiveness
CC[C@H](C)[C@H](NC(=O)[C@H](CCCCN)NC(=O)[C@@H](NC(=O)[C@H](CCC(N)=O)NC(=O)[C@@H](N)CCCNC(=N)N)[C@@H](C)CC)C(=O)N[C@@H](Cc1c[nH]c2ccccc12)C(=O)N[C@@H](Cc1ccccc1)C(=O)N[C@@H](Cc1c[nH]c2ccccc12)C(=O)N[C@@H](CC(N)=O)C(=O)N[C@@H](CCCNC(=N)N)C(=O)N[C@@H](CCCNC(=N)N)C(=O)N[C@@H](CCSC)C(=O)N[C@@H](CCCCN)C(=O)N[C@@H](Cc1c[nH]c2ccccc12)C(=O)N[C@@H](CCCCN)C(=O)N[C@@H](CCCCN)C(=O)N1CCC[C@H]1C(=O)N1CCC[C@H]1C(=O)N[C@@H](CS)C(=O)N[C@H](C(=O)N[C@H](C(=O)N[C@@H](Cc1ccc(O)cc1)C(=O)N[C@H](C(=O)N[C@@H](CO)C(=O)N[C@@H](CO)C(=O)N[C@@H](Cc1ccccc1)C(=O)N[C@H](C(=O)N[C@@H](Cc1ccccc1)C(=O)N[C@H](C(=O)N[C@@H](Cc1ccc(O)cc1)C(=O)N1CCC[C@H]1C(=O)N[C@@H](CCC(=O)O)C(=O)N[C@@H](C)C(=O)N[C@@H](CC(=O)O)C(=O)N[C@@H](CO)C(=O)N[C@@H](Cc1ccccc1)C(=O)N1CCC[C@H]1C(=O)N[C@@H](CO)C(=O)O)[C@@H](C)O)C(C)C)[C@@H](C)O)[C@@H](C)O)[C@@H](C)O [Penetratin-DEF-c-Fos] (H-RQIKIWFWNRRMKWKKPPCTTYTSSFVFTYPEADSFPS-OH; N-terminus and C-terminus assumed)	lower efficacy than the TAT-DEF-c-Fos peptide				inhibition of proliferation of sNF96.2 ([1]; 100 μM): ~66%
CO[C@H]1C[C@@H]2CC[C@@H](C)[C@@](O)(O2)C(=O)C(=O)N2CCCC[C@H]2C(=O)O[C@H]([C@H](C)C[C@@H]2CC[C@@H](O)[C@H](OC)C2)CC(=O)[C@H](C)/C=C(\C)[C@@H](O)[C@@H](OC)C(=O)[C@H](C)C[C@H](C)/C=C/C=C/C=C/1C [Rapamycin]					IC50 [4]: ~10 mM

— patent US10053502B2, “Selective inhibitors of c-Fos and their antiproliferative properties” (INSERM (INSTITUT NATIONAL DE LA SANTÉ ET DE LA RECHERCHE …, priority 2014, dated 2018)
